Like-named read-outs stand apart in the source and are kept apart here. Marks after values point to notes of the source that are not given here.
What was measured:
GtfB catalytic domain = GtfB catalytic domain (Streptococcus mutans serotype c (strain ATCC 700610 / UA159), UniProt P08987); test: OctetRed96 binding kinetics, GtfB; details: 1:1 binding model
From the text: To determine if the inhibition is attributed by the binding of the lead compound to the enzymes, the OctetRed96 system was used to characterize protein-small molecule binding kinetics. The his-tagged catalytic domains of GtfB and GtC were immobilized separately onto an anti-penta-HIS (HIS1K) biosensor which consists of high affinity, high specificity penta-his antibody pre-immobilized on a fiber optic biosensor. This sensor was then exposed to varying concentrations of #G43.
Expression and purification of GtfB and GtfC catalytic domains. The DNA fragment coding for either GtfB catalytic (residues 268 aa-1074 aa) or GtfC-catalytic (residues 295 aa-1103 aa) was PCR amplified with primer sets of GtfB-BamH1-F and GtfB-Xho1-R, GtfC-BamH1-F and GtfC-Xhol1-R respectively using S. mutans genomic DNA as a template. Each amplified fragment was cloned into pET-sumo vector respectively and transformed in Escherichia coli BL21(DE3). The recombinant strain grown to OD600=0.8 in LB medium was induced with 0.1 mM IPTG at 18° C. overnight. Cell lysates prepared form the overnight grown E. coli cells were subjected to protein purification using HiTrap™ Column (Ni^2+ affinity) followed by gel filtration experiments as described (Zhu, F. et al. Structural and functional analysis of a new subfamily of glycosyltransferases required for glycosylation of serine-rich streptococcal adhesins. The Journal of biological chemistry 286, 27048-27057, doi:10.1074/jbc.M110.208629 (2011); Zhang, H. et al. The highly conserved domain of unknown function 1792 has a distinct glycosyltransferase fold. Nature communications 5, 4339, doi:10.1038/ncomms5339 (2014)).
Octet Red analysis. Octet full kinetic binding analysis was performed for binding of #G43 to GtfB and GtfC. The rate constant, KD, was determined using the Octet® Red96 system (ForteBio, Menlo Park, Calif.). Phosphate buffer with 3.5% (w/v) DMSO was used. The proteins were captured on dip-and-read Anti-Penta-HIS (HIS1K) Biosensor. These consist of high affinity, high specificity Penta-His antibody from Qiagen pre-immobilized on a fiber optic biosensor. The binding of #G43 at 3-fold serial dilutions in phosphate buffer from 200, 66.6, 22.2, 7.4, 2.5 to 0 μM was assessed. The ForteBio Octet analysis software (ForteBio, Menlo Park, Calif.) was used to generate the sensorgram and the accuracy of the analysis.
OctetRed analysis. […] GtfC and GtfB were purified. The Octet® Red96 system (ForteBio, Menlo Park, Calif.) was used to determine the rate constant, KD. […] Sensorgrams and the accuracy of the analysis was calculated using the ForteBio OctetRed analysis software (ForteBio, Menlo Park, Calif.).

S. mutans biofilm = S. mutans biofilm formation and inhibition assay (96-well plates, crystal violet); format: cell-based, Streptococcus mutans; details: for IC50: Streptococcus mutans
S. mutans Gtfs = test: Gtf zymographic assay with SDS-PAGE; format: biochemical, Streptococcus mutans; details: for Gtf enzyme inhibitory activity, glucan bands in zymogram / production of Gtfs, protein level on SDS-PAGE: 50 μM added to cultures; for % Inhibition of GTFs at 10 μM: S. mutans GTF zymogram assay, NI = no inhibition up to 10 μM
Procedure: A well-established zymographic assay was used to determine enzymatic activity of Gtfs (Mattos-Graner et al. (2004) J. Clin. Microbiol. 42, […]). In brief, overnight S. mutans UA159 cultures were diluted 1:100 in fresh 5 mL THB with 50 μL of selective compounds at a series of concentrations. Treated bacteria were grown to OD470 of 1.0, and spun down by centrifugation at 4° C., and culture supernatants were collected and filtered through a 0.22-μm-pore-size filter membrane to remove residual bacterial cells and dialyzed at 4° C. against 0.02 M sodium phosphate buffer (pH 6.8), with 10 μM phenylmethylsulfonyl fluoride (PMSF), followed by a second dialysis against 0.2 mM sodium phosphate containing 10 μM PMSF. After dialysis, 4 mL of samples were concentrated to 40 μL by 100K Amicon Ultra-4 centrifugal filter (Merck Millipore Ltd.). For electrophoresis and zymographic analysis, 10 μL of each concentrated culture supernatant was applied to 8% SDS-PAGE in duplicate. One gel was used for protein staining with Coomassie blue dye, while the other one was subjected to zymographic assay as described (Mattos-Graner et al. (2004) J. Clin. Microbiol. 42, […]). The resultant white opaque glucan bands were visualized against a black background.
Inhibition of the activity of Gtfs determined by zymographic assays. Well established zymographic assay was used to determine enzymatic activity of Gtfs. In brief, overnight S. mutans UA159 cultures were diluted 1:100 in fresh 5 mL THB. Bacteria were grown to OD470 of 1.0, and spun down by centrifugation at 4° C. and culture supernatants were collected and filtered through a 0.22-μm-pore-size filter membrane to remove residual bacterial cells and dialyzed at 4° C. against 0.02 M sodium phosphate buffer (pH 6.8), with 10 μM phenylmethylsulfonyl fluoride (PMSF), followed by a second dialysis against 0.2 mM sodium phosphate containing 10 μM PMSF. After dialysis, 4 mL of samples were concentrated to 40 μL by 100K Amicon Ultra-4 centrifugal filter (Merk Millipore Ltd.). For electrophoresis and zymographic analysis, 10 μL of each concentrated culture supernatant was applied to 8% SDS-PAGE in duplicate. One gel was used for protein staining with Coomassie blue dye, while the other one was subjected to zymographic assay. For zymogram analysis, following electrophoretic separation, gels were washed twice for 15 min each with renaturing buffer containing 2.5% Triton X-100. Gels were then incubated for 18 h at 37° C. with 0.2 M sodium phosphate buffer (pH 6.5) containing 0.2% dextran T70, 5% sucrose, and varying concentrations of the small molecule inhibitors. The reactions were stopped by washing gels with distilled water at 4° C. for 10 min, and digital images of the resultant white opaque glucan bands were visualized against a black background and captured using a digital camera.
Inhibition of the activity of Gtfs determined by zymographic assays. A well-established zymographic assay was used to determine enzymatic activity of Gtfs (Mattos-Graner, R. O., Napimoga, M. H., Fukushima, K., Duncan, M. J., Smith, D. J., J Clin Microbiol, 2004, 42, 4586). In brief, overnight S. mutans UA159 cultures were diluted 1:100 in fresh 5 mL THB with 50 μL of selective compounds at a series of concentrations. Treated bacteria were grown to OD470 of 1.0, and spun down by centrifugation at 4° C., and culture supernatants were collected and filtered through a 0.22-μm-pore-size filter membrane to remove residual bacterial cells and dialyzed at 4° C. against 0.02 M sodium phosphate buffer (pH 6.8), with 10 μM phenylmethylsulfonyl fluoride (PMSF), followed by a second dialysis against 0.2 mM sodium phosphate containing 10 μM PMSF. After dialysis, 4 mL of samples were concentrated to 40 μL by 100K Amicon Ultra-4 centrifugal filter (Merk Millipore Ltd.). For electrophoresis and zymographic analysis, 10 μL of each concentrated culture supernatant was applied to 8% SDS-PAGE in duplicate. […]

S. mutans = test: microbe, parasite or virus in culture; format: cell-based, Streptococcus mutans; details: for IC50: Table 7, synthesized analogs of compound 9, read-out: Growth IC50; for SI (selectivity index): Table 7, growth IC50 value divided by biofilm IC50 value
Method in brief: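 Mid-exponential cultures (OD470 0.6) in THB were exposed to compound concentrations for 16 h, with growth read at OD470 and normalised to 1% DMSO control (100%). CFU/mL were also counted after 24 h at 37 °C and compared with the DMSO control.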

S. mutans colonization = test: Sucrose-dependent Drosophila colonization model; format: in vivo; details: chalcones; 100 μM or 50 μM
Procedure: Briefly, Gfp tagged S. mutans bacteria were infected into flies along with the treatment appropriate compound at 100 μM in a feeding-assay.
Mid-log phase THB cultures of Gfp-tagged (green fluorescent protein) S. mutans UA159 were spun down and resuspended in a solution containing 5% sucrose and 50 μM of the compound. 100 μL of resuspended cells were spotted onto a sterile filter that was placed on the surface of 5 mL of solidified 5% sucrose agar in a plastic vial. The vials were allowed to dry at room temperature for 30 minutes prior to addition of flies. Male Canton S flies (1-3 days old) were treated with antibiotics for 2 days and starved for 3 hours prior to the addition to vials supplied with S. mutans (10 flies per vial). The colonization of flies by Gfp-tagged strains were analyzed by Nikon elipse 90i microscope, equipped with an Epi-fluorescence and NIS elements AR imaging system.
The intensity of the fluorescence was measured in the guts of the flies fed with the Gfp tagged bacteria after 7 days of infection.
Cultures of Gfp-tagged (green fluorescent protein) S. mutans UA159 grown to middle log phase were spun down and re-suspended in a solution containing 5% sucrose and 50 μM of each compound. 100 μL of re-suspended cells were aliquoted onto a sterile filter that was placed on the surface of 5 mL of solidified 5% sucrose agar in a plastic vial. Upon the drying of the vials at room temperature for 30 min, the flies were introduced to the vessels. Male Canton S flies (1-3 days old) were treated with antibiotics for 2 days and starved for 3 h before the addition to vials supplied with S. mutans (10-14 flies per vial). Nikon elipse 90i microscope, equipped with an Epi-fluorescence and NIS elements AR imaging system was used to analyze the colonization of flies by Gfp-tagged strains.

[1] = Table 7, synthesized analogs of compound 9, read-out: Biofilm IC50
[2] = read-out: S. mutans biofilm IC50
[3] = Table 1, >500 = no inhibition up to 500 μM, read-out: Biofilm Inhibition IC50
[4] = Table 5, >500 = no inhibition up to 500 μM, read-out: Biofilm Inhibition IC50

GtfB catalytic domain, sequence (P08987 268-1074 limits assumed): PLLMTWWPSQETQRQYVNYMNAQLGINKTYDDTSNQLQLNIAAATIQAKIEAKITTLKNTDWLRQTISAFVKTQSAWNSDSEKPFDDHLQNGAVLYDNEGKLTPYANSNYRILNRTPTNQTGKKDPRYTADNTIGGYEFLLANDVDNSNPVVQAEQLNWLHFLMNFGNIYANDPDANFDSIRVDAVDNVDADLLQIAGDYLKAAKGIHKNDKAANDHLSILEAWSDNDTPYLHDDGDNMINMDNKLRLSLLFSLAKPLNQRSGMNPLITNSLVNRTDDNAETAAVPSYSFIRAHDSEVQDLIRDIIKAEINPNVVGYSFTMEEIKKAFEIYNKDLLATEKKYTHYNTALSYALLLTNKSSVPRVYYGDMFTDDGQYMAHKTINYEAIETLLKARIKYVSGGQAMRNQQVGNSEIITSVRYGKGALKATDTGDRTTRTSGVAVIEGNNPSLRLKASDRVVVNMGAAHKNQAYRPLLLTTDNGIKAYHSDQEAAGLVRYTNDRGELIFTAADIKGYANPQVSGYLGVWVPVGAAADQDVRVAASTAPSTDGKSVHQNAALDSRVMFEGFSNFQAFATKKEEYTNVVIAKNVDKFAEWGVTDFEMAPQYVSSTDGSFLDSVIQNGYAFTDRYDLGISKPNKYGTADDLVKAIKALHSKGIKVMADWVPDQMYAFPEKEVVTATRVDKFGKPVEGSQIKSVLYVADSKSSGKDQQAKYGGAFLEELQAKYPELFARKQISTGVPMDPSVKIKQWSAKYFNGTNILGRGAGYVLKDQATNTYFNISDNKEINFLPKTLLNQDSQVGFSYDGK

O=C(Nc1ccccc1)c1cc2cc([N+](=O)[O-])ccc2s1 [#G43-D]
Kd (GtfB catalytic domain): 68 µM | inhibition of S. mutans biofilms, biofilm assay and fluorescence microscopy (S. mutans biofilm; concentrations up to 200 μM): did not inhibit | glucan bands in zymographic assay (S. mutans Gtfs; 50 μM, Gtfs from S. mutans UA159 supernatants): significantly reduced the ability to inhibit the glucan production

O=C(/C=C\c1ccc(O)cc1O)c1ccc(O)cc1 [Compound 21b, (Z)-3-(2,4-Dihydroxyphenyl)-1-(4-hydroxyphenyl)-2-propen-1-one]
melting point: 185 to 187 °C | IC50 (S. mutans biofilm; [1]): 77 ± 8 µM | IC50 (S. mutans; Streptococcus mutans): 782 ± 96 µM | SI (selectivity index) (S. mutans): 10.1 | Gtf enzyme inhibitory activity, glucan bands in zymogram (S. mutans Gtfs): exhibit the best inhibitory effects | production of Gtfs, protein level on SDS-PAGE (S. mutans Gtfs): showed an inhibitory effect on the production of Gtfs

O=C(/C=C/c1ccc(O)cc1O)c1cccc(O)c1 [Compound 9a, (E)-3-(2,4-Dihydroxyphenyl)-1-(3-hydroxyphenyl)-2-propen-1-one]
fluorescence of Gfp tagged S. mutans in fly guts after 7 days (S. mutans colonization): marked reduction in fluorescence | melting point: 73 to 75 °C | IC50 (S. mutans biofilm; [1]): 68 ± 3 µM | IC50 (S. mutans biofilm; [2]): 68 µM | selectivity (index / fold) for biofilm over growth (S. mutans): about 10 | IC50 (S. mutans; Streptococcus mutans): 639 ± 25 µM | SI (selectivity index) (S. mutans): 9.39 | Gtf enzyme inhibitory activity, glucan bands in zymogram (S. mutans Gtfs): did not exhibit a drastic effect

O=C(/C=C\c1ccc(O)cc1O)c1cccc(O)c1 [Compound 9b, (Z)-3-(2,4-Dihydroxyphenyl)-1-(3-hydroxyphenyl)-2-propen-1-one]
fluorescence of Gfp tagged S. mutans in fly guts after 7 days (S. mutans colonization): marked reduction in fluorescence | melting point: 164 to 167 °C | IC50 (S. mutans biofilm; [1]): 44 ± 5 µM | IC50 (S. mutans biofilm; [2]): 44 µM | selectivity (index / fold) for biofilm over growth (S. mutans): about 10 | IC50 (S. mutans; Streptococcus mutans): 468 ± 16 µM | SI (selectivity index) (S. mutans): 10.6 | Gtf enzyme inhibitory activity, glucan bands in zymogram (S. mutans Gtfs): exhibit the best inhibitory effects | production of Gtfs, protein level on SDS-PAGE (S. mutans Gtfs): showed an inhibitory effect on the production of Gtfs

O=C(Nc1ccccc1C(=O)O)c1cc2cc([N+](=O)[O-])ccc2s1 [Compound 3N]
IC50 (S. mutans biofilm; [3]): 89.3 µM | IC50 (S. mutans biofilm; Table 2, read-out: Biofilm Inhibition IC50): 89.3 µM | IC50 (S. mutans biofilm; [4]): 89.3 µM | MIC50 (S. mutans; Streptococcus mutans, Table 2, >300 = no inhibition up to 300 μM, read-out: Growth Inhibition MIC50): > 300 µM | % Inhibition of GTFs at 10 μM (S. mutans Gtfs): 30.1%

NC(=O)c1ccccc1NC(=O)c1cc2cc(N)ccc2s1 [Compound 3M]
IC50 (S. mutans biofilm; [3]): 10.2 µM | IC50 (S. mutans biofilm; [4]): 10.2 µM | Growth Inhibition MIC50 (S. mutans; Table 2, >300 = no inhibition up to 300 μM): >300^b μM | % Inhibition of GTFs at 10 μM (S. mutans Gtfs): 42.2%

O=C(/C=C/c1ccc(O)cc1O)c1ccc(O)cc1 [Compound 18b, (E)-3-(2,4-Dihydroxyphenyl)-1-(4-hydroxyphenyl)-2-propen-1-one]
melting point: 185 to 188 °C | IC50 (S. mutans biofilm; [1]): 162 ± 21 µM | IC50 (S. mutans; Streptococcus mutans): 1060 ± 118 µM | SI (selectivity index) (S. mutans): 6.6 | Gtf enzyme inhibitory activity, glucan bands in zymogram (S. mutans Gtfs): did not exhibit a drastic effect | production of Gtfs, protein level on SDS-PAGE (S. mutans Gtfs): showed an inhibitory effect on the production of Gtfs
